In the NIST ThermoML archive (doi:10.1016/j.jct.2018.03.007):

Assay: xn = mol fraction of the nth substance listed
Conditions: 100 kPa, Liquid; for speed of sound: Linear variable-path acoustic interferometer; for mass density: Vibrating tube method

CCn1cc[n+](C)c1.O=S(=O)([O-])O [1-ethyl-3-methylimidazolium hydrogen sulfate] + C[S+](C)[O-]
speed of sound [m/s], Frequency=2 MHz
Conditions | x1 = 0.0494 | x1 = 0.1349 | x1 = 0.2377 | x1 = 0.3638 | x1 = 0.5219 | x1 = 0.6517 | x1 = 0.7261 | x1 = 0.8081 | x1 = 0.9182 | x1 = 1
298.15 K | 1530.5 | 1600.5 | 1672.7 | 1746.9 | 1823.3 | 1875.5 | 1902 | 1928.7 | 1961 | 1982.8
303.15 K | 1513.4 | 1582.9 | 1654.4 | 1728.2 | 1804.2 | 1856.1 | 1882.4 | 1909 | 1941.2 | 1962.9
308.15 K | 1495.9 | 1564.8 | 1635.9 | 1709.3 | 1784.9 | 1836.6 | 1862.8 | 1889.3 | 1921.5 | 1943.1
313.15 K | 1478.6 | 1547 | 1617.6 | 1690.5 | 1765.7 | 1817.1 | 1843.2 | 1869.6 | 1901.6 | 1923.2

mass density [kg/m3]
Conditions | x1 = 0.0494 | x1 = 0.1349 | x1 = 0.2377 | x1 = 0.3638 | x1 = 0.5219 | x1 = 0.6517 | x1 = 0.7261 | x1 = 0.8081 | x1 = 0.9182 | x1 = 1
298.15 K | 1128.82 | 1175.73 | 1219.12 | 1259.43 | 1297.19 | 1320.97 | 1332.42 | 1343.71 | 1357.03 | 1365.75
303.15 K | 1124.11 | 1171.37 | 1214.91 | 1255.51 | 1293.61 | 1317.58 | 1329.14 | 1340.51 | 1353.89 | 1362.62
308.15 K | 1119.4 | 1166.99 | 1210.85 | 1251.66 | 1290.03 | 1314.21 | 1325.9 | 1337.32 | 1350.73 | 1359.53
313.15 K | 1114.68 | 1162.54 | 1206.72 | 1247.85 | 1286.51 | 1310.9 | 1322.64 | 1334.1 | 1347.61 | 1356.41

CCn1cc[n+](C)c1.O=S(=O)([O-])O [1-ethyl-3-methylimidazolium hydrogen sulfate] + CCO
speed of sound [m/s], Frequency=3 MHz
Conditions | x1 = 0.0281 | x1 = 0.0878 | x1 = 0.1779 | x1 = 0.3378 | x1 = 0.4731 | x1 = 0.577 | x1 = 0.6689 | x1 = 0.7759 | x1 = 0.8797 | x1 = 1
298.15 K | 1190.1 | 1289.8 | 1416.2 | 1577.8 | 1698.6 | 1780.2 | 1836.4 | 1893.6 | 1943.4 | 1982.8
303.15 K | 1170.6 | 1267.3 | 1393.3 | 1558.4 | 1675.8 | 1755.7 | 1816.2 | 1871.9 | 1922.1 | 1962.9
308.15 K | 1152.1 | 1245.3 | 1370.9 | 1538.6 | 1653 | 1731.4 | 1796 | 1850.2 | 1900.8 | 1943.1
313.15 K | 1132.9 | 1222.8 | 1348 | 1516.6 | 1630.3 | 1707.9 | 1773.8 | 1828.5 | 1879.5 | 1923.2

mass density [kg/m3]
Conditions | x1 = 0.0281 | x1 = 0.0878 | x1 = 0.1779 | x1 = 0.3378 | x1 = 0.4731 | x1 = 0.577 | x1 = 0.6689 | x1 = 0.7759 | x1 = 0.8797 | x1 = 1
298.15 K | 829.67 | 910.66 | 1007.45 | 1129.95 | 1203.92 | 1248.74 | 1281.87 | 1314.38 | 1340.71 | 1365.75
303.15 K | 825.5 | 906.7 | 1003.74 | 1126.52 | 1200.65 | 1245.56 | 1278.69 | 1311.18 | 1337.51 | 1362.62
308.15 K | 821.28 | 902.7 | 999.98 | 1123.06 | 1197.38 | 1242.38 | 1275.52 | 1308 | 1334.34 | 1359.53
313.15 K | 817 | 898.63 | 996.14 | 1119.54 | 1194.05 | 1239.13 | 1272.31 | 1304.78 | 1331.14 | 1356.41

CCn1cc[n+](C)c1.O=S(=O)([O-])O [1-ethyl-3-methylimidazolium hydrogen sulfate] + CCCO
speed of sound [m/s], Frequency=2 MHz
Conditions | x1 = 0.0519 | x1 = 0.1097 | x1 = 0.2473 | x1 = 0.3301 | x1 = 0.425 | x1 = 0.5348 | x1 = 0.6634 | x1 = 0.816 | x1 = 0.9035 | x1 = 1
298.15 K | 1272.3 | 1342.3 | 1486.2 | 1561.1 | 1640.8 | 1724.4 | 1808.4 | 1892 | 1937.7 | 1982.8
303.15 K | 1254.7 | 1324 | 1467.1 | 1542 | 1621.3 | 1704.9 | 1788.3 | 1871.6 | 1917.9 | 1962.9
308.15 K | 1237.1 | 1305.9 | 1448.3 | 1522.1 | 1601.4 | 1684.2 | 1767.3 | 1850.6 | 1898.1 | 1943.1
313.15 K | 1219.7 | 1288.1 | 1429.1 | 1502.6 | 1581.7 | 1664.9 | 1747.8 | 1830.1 | 1878.1 | 1923.2

mass density [kg/m3]
Conditions | x1 = 0.0519 | x1 = 0.1097 | x1 = 0.2473 | x1 = 0.3301 | x1 = 0.425 | x1 = 0.5348 | x1 = 0.6634 | x1 = 0.816 | x1 = 0.9035 | x1 = 1
298.15 K | 859.54 | 918.5 | 1034.63 | 1091.59 | 1147.59 | 1202.62 | 1256.73 | 1310.71 | 1338.05 | 1365.75
303.15 K | 855.59 | 914.64 | 1030.95 | 1088.01 | 1144.15 | 1199.35 | 1253.6 | 1307.54 | 1334.87 | 1362.62
308.15 K | 851.62 | 910.8 | 1027.23 | 1084.39 | 1140.69 | 1196.07 | 1250.5 | 1304.42 | 1331.73 | 1359.53
313.15 K | 847.65 | 906.93 | 1023.51 | 1080.78 | 1137.24 | 1192.77 | 1247.33 | 1301.31 | 1328.62 | 1356.41
